# Test results from US20140357512A1, “HISTONE DEACETYLASE (HDAC) BIOMARKERS IN MULTIPLE MYELOMA” (priority 2013, published 2014).
# Test system: human myeloma cell line MM.1S
# Assay: SILAC acetylated-lysine peptide profiling, HDAC inhibitor vs DMSO (light/heavy ratio)
# Assay type: cell-based
# Excerpt: An embodiment of the invention comprises utilizing the SILAC method in order to quantitate changes in protein expression between two or more populations of cells. The SILAC method is a technique based on mass spectrometry that detects differences in protein abundance among samples using non-radioactive isotopic labeling. The SILAC method is known in the art, and described in detail in Ong et al., “Stable Isotope Labeling by Amino Acids in Cell Culture, SILAC, as a Simple and Accurate Approach to Expression Proteomics”, Molecular & Cellular Proteomics, vol. 1, pp. 376-386 (2002), which is incorporated herein by reference in its entirety.
# Briefly, the SILAC method involves growing two populations of cells in cell culture. The first population of cells is grown in growth media containing normal amino acids (“normal media”). The second population of cells is grown in media lacking a standard essential amino acid (such as lysine), but is then supplemented with a non-radioactive, isotopically labeled form of that essential amino acid (such as lysine labeled with ^13C atoms, rather than normal ^12C atoms), which is called “heavy media”. When the two populations of cells are each growing in the medium, they incorporate the amino acids into all of their proteins. The growth of cells maintained in the heavy media is no different from that in normal media. All peptides containing the heavy amino acids are heavier than their normal counterparts. The cells from each of the two populations of cells are lysed. The lysates from each of the two cell populations are then combined. The combined cell lysates are then analyzed by mass spectrometry. Pairs of chemically identical peptides of different stable isotope composition can be differentiated in a mass spectrometer due to their difference in mass. The ratio of peak intensities in the mass spectrum for such peptide pairs reflects the abundance ratio for the two proteins.
# This example describes SILAC studies that were performed to compare the effects of three different HDAC inhibitors (Compound A, Compound B, and tubastatin A) to a control on a human multiple myeloma cell line. The HDAC inhibitors were also compared amongst themselves to determine differences in their effects.
# A human myeloma cell line MM.1S was grown using either ^12C (light) or ^13C (heavy) lysine containing culture medium. The “heavy” cells were treated with DMSO as the control, and the “light” cells were treated with a single HDAC inhibitor at 37° C. for 6 hours. The heavy and light cells were lysed, and the lysates were mixed in 1:1 ratio and digested with the protease trypsin. The acetylated lysine containing peptides (due to the action of the HDAC inhibitor) in the digested peptide pool were captured by a non-specific anti-acetylated lysine antibody cocktail (the antibodies identify both light and heavy acetylated peptides), and subjected to mass spectrometry analysis in order to identify thousands of individual peptides.
# Thousands of peptides were identified in pairs (^12C and ^13C) due to their known mass differences. The amino acid sequence and quantitative ratio (Light/Heavy) of a given peptide in two differentially treated cell lysates were then determined and annotated with their possible protein (gene) sources.
# As stated above, three HDAC inhibitors (Compound A, Compound B, and Tubastatin A) were used. Thus, the SILAC method was performed three times, with a different HDAC inhibitor compared to a control each time. Accordingly, there are three pairs of quantitative data in the table below, i.e., Compound A:DMSO, Compound B:DMSO, and Tubastatin A:DMSO. A cut-off of 1.30 fold of change (increase or decrease) was then used to determine “changed” or “+” in the table, and any peptides with a fold of change less than 1.3 fold were determined to be “unchanged” or “0” in the table. Those peptides that were not identified were marked as “NA” in the table. […]
structure (smiles),measurement,setting,value
"O=C(NO)c1cnc(NC2(c3cccc(F)c3)CCCCC2)nc1 [Compound B, 2-((1-(3-fluorophenyl)cyclohexyl)amino)-N-hydroxypyrimidine-5-carboxamide]",L/H ratio of acetylated peptide,"VETFSGVYK(ac)K (SEQ ID NO: 445), 40S ribosomal protein S7 [178], RPS7",−0.78 log 2
same,L/H ratio of acetylated peptide,"VEWAK(ac)FQER (SEQ ID NO: 447), Splicing factor 3A subunit 1 [251], SF3A1",−0.55 log 2
same,"light to heavy ratio (L/H ratio) of acetylated peptide, log 2 scale","VGIVGK(ac)YGTR (SEQ ID NO: 250), 60S ribosomal protein L37a [13], RPL37A",0.00
same,L/H ratio of acetylated peptide,"VIIVVK(ac)DGPGFYTTR (SEQ ID NO: 401), Trifunctional enzyme subunit alpha mitochondrial [540], HADHA",−0.70 log 2
same,L/H ratio of acetylated peptide TNEK(ac)VELQELNDR (SEQ ID NO: 122),"VIM [104], log 2 scale, drug vs DMSO",0.00
same,L/H ratio of acetylated peptide FANYIDK(ac)VR (SEQ ID NO: 118),"VIM [120], log 2 scale, drug vs DMSO",0.00
same,L/H ratio of acetylated peptide […](ac)GQGK (SEQ ID NO: 119),"VIM [139], log 2 scale, drug vs DMSO",0.00
same,L/H ratio of acetylated peptide SK(ac)[…] (SEQ ID NO: 121),"VIM [294], log 2 scale, drug vs DMSO",0.00
same,L/H ratio of acetylated peptide LQDEIQNMK(ac)EEMAR (SEQ ID NO: 120),"VIM [373], log 2 scale, drug vs DMSO",0.00
same,"light to heavy ratio (L/H ratio) of acetylated peptide, log 2 scale","VVVGK(ac)[…] (SEQ ID NO: 193), Protein disulfide-isomerase A4 [533], PDIA4",0.00
same,L/H ratio of acetylated peptide,"VYISK(ac)CYR (SEQ ID NO: 394), Isoform 1 of Regulator of micro-tubule dynamics protein 3 [426], FAM82A2",−0.85 log 2
same,light to heavy ratio (L/H ratio) of acetylated peptide TLLIK(ac)TVETR (SEQ ID NO: 269),"Vimentin [445], VIM, drug:DMSO",0.00 log 2
same,L/H ratio of acetylated peptide,"WTPEVK(ac)[…] (SEQ ID NO: 442), Rho-related GTP-binding protein RhoC [104], RHOC",−0.39 log 2
same,light to heavy ratio (L/H ratio) of acetylated peptide IAAYK(ac)SILQER (SEQ ID NO: 531),"X-ray repair cross-complementing protein 5 [265], gene XRCC5, inhibitor:DMSO",0.00 log 2
same,light to heavy ratio (L/H ratio) of acetylated peptide EEAIK(ac)FSEEQR (SEQ ID NO: 509),"X-ray repair cross-complementing protein 5 [648], gene XRCC5, inhibitor:DMSO",0.00 log 2
same,light to heavy ratio (L/H ratio) of acetylated peptide […](ac)HFQD (SEQ ID NO: 355),"X-ray repair cross-complementing protein 6 [605], XRCC6, drug:DMSO",−0.74 log 2
same,L/H ratio of acetylated peptide ALQEK(ac)VEIK (SEQ ID NO: 123),"XRCC5 [665], log 2 scale, drug vs DMSO",0.00
same,L/H ratio of acetylated peptide,"YHVSEK(ac)PYGIVEK (SEQ ID NO: 424), NADH dehydrogenase [ubiquinone] 1 beta subcomplex subunit 6 [93], NDUFB6",−1.00 log 2
same,L/H ratio of acetylated peptide,"YK(ac)[…] (SEQ ID NO: 417), Microsomal glutathione S-transferase 3 [37], MGST3",−0.59 log 2
same,"light to heavy ratio (L/H ratio) of acetylated peptide, log 2 scale","YLENGK(ac)ETLQR (SEQ ID NO: 163), Putative HLA class I histocompatibility antigen alpha chain H [200], HLA-H",0.00
same,"light to heavy ratio (L/H ratio) of acetylated peptide, log 2 scale","YNCDK(ac)MICR (SEQ ID NO: 254), Ubiquitin-605 ribosomal protein L40 [93], UBA52",0.00
same,L/H ratio of acetylated peptide,"YPPPYK(ac)HFWTAES (SEQ ID NO: 461), Isoform 2 of Ubiquitin-associated protein 2-like [976], UBAP2L",−0.50 log 2
same,L/H ratio of acetylated peptide,"YTEQITNEK(ac)LAMVK (SEQ ID NO: 423), NADH dehydrogenase [ubiquinone] 1 alpha subcomplex subunit 5 [55], NDUFA5",−0.40 log 2
same,"light to heavy ratio (L/H ratio) of acetylated peptide, log 2 scale","[…](ac)AAVR (SEQ ID NO: 220), Tricarboxylate transport protein mitochondrial [97], SLC25A1",0.00
same,"light to heavy ratio (L/H ratio) of acetylated peptide, log 2 scale","[…](ac)DETEFR (SEQ ID NO: 137), UPF0568 protein C14orf166 [20], C14orf166",0.00
same,L/H ratio of acetylated peptide,"[…](ac)DGEIYCK (SEQ ID NO: 383), Cysteine and glycine-rich protein 1 [161], CSRP1",−0.67 log 2
same,L/H ratio of acetylated peptide,"[…](ac)EKLNER (SEQ ID NO: 406), 60 kDa heat shock protein mitochondrial [387], HSPD1",0.40 log 2
same,L/H ratio of acetylated peptide,"[…](ac)FDENAK (SEQ ID NO: 429), Phosphoglycerate kinase 1 [291], PGK1",0.60 log 2
same,L/H ratio of acetylated peptide,"[…](ac)FIAR (SEQ ID NO: 441), Protein RCC2 [293], RCC2",0.75 log 2
same,"light to heavy ratio (L/H ratio) of acetylated peptide, log 2 scale","[…](ac)FSDDHYR (SEQ ID NO: 190), NAD(P) transhydrogenase mitochondrial [100], NNT",0.00
same,L/H ratio of acetylated peptide,"[…](ac)FVER (SEQ ID NO: 460), cDNA FLJ40024 fis clone STOMA2007745 highly similar to UBIQUITIN-[…] E1 [119], UBA1",0.44 log 2
same,L/H ratio of acetylated peptide,"[…](ac)GDSK(ac)NAK (SEQ ID NO: 392), Histone acetyltransferase p300 [1542:1546], EP300",0.53 log 2
